Data: ChEMBL document CHEMBL1126716, “Synthesis and evaluation of the antitumor activity of 4,5-diamino-substituted 1,2-benzoquinones” (J Med Chem, 1993)

Columns and labels:
[1] = tested on: EMT6; assay: Tested for 50% inhibition against EMT-6 murine mammary carcinoma cell under normal oxygenated condition; format: functional, cell-based; details: Mus musculus
[2] = tested on: EMT6; assay: Tested for 50% inhibition against EMT-6 murine mammary carcinoma cell under hypoxia condition; format: functional, cell-based; details: Mus musculus
[3] = tested on: EMT6; assay: Tested for 90% inhibition against EMT-6 murine mammary carcinoma cell under normal oxygenated condition; format: functional; details: Mus musculus
[4] = tested on: EMT6; assay: Tested for 90% inhibition against EMT-6 murine mammary carcinoma cell under hypoxia condition; format: functional; details: Mus musculus
[5] = tested on: Mus musculus; assay: Increase in life span of animals bearing L1210 leukemia after ip administration at a dose of 0.50 mg/kg; format: functional; details: route intraperitoneal
[6] = tested on: Mus musculus; assay: Increase in life span of animals bearing L1210 leukemia after ip administration at a dose of 2.00 mg/kg; format: functional; details: route intraperitoneal
[7] = tested on: Mus musculus; assay: Survival days at a dose of 0.50 mg/kg after ip administration on days 1-5; format: functional; details: dose 0.5 mg/kg; route intraperitoneal
[8] = tested on: Mus musculus; assay: Increase in life span of animals bearing L1210 leukemia after ip administration at a dose of 2.50 mg/kg; Toxic; format: functional, organism-based; set-up: dose 2.5 mg/kg
[9] = tested on: Mus musculus; assay: Increase in life span of animals bearing L1210 leukemia after ip administration at a dose of 1.50 mg/kg; format: functional; details: route intraperitoneal
[10] = tested on: Mus musculus; assay: Survival days at a dose of 1.00 mg/kg after ip administration on days 1-5; format: functional; details: route intraperitoneal
[11] = tested on: Mus musculus; assay: Increase in life span of animals bearing L1210 leukemia after ip administration at a dose of 1.00 mg/kg; format: functional; details: route intraperitoneal
[12] = tested on: Mus musculus; assay: Survival days at a dose of 2.00 mg/kg after ip administration on days 1-5; format: functional; details: route intraperitoneal
[13] = tested on: Mus musculus; assay: Survival days at a dose of 1.50 mg/kg after ip administration on days 1-5; format: functional; details: dose 1.5 mg/kg; route intraperitoneal
[14] = tested on: Mus musculus; assay: Increase in life span of animals bearing L1210 leukemia after ip administration at a dose of 1.25 mg/kg; format: functional; details: route intraperitoneal
[15] = tested on: Mus musculus; assay: Survival days at a dose of 1.25 mg/kg after ip administration on days 1-5; format: functional; details: route intraperitoneal
[16] = tested on: Mus musculus; assay: Survival days at a dose of 2.50 mg/kg after ip administration on days 1-5; format: functional; details: dose 2.5 mg/kg; route intraperitoneal

`CCOC(=O)NC1=C(N2CC2)C(=O)C(NC(=O)OCC)=C(N2CC2)C1=O` [DIAZIQUONE] gave an IC50 [1] of 5 µM and an IC50 [2] of 7.5 µM.
Compound `O=C1C=C(N2CCCC2)C(N2CCCC2)=CC1=O` has an IC50 [1] greater than 500 µM, an IC50 [2] greater than 500 µM and an IC90 [3] greater than 500 µM. The IC90 [4] was greater than 500 µM.
For `CCN(CC)C1=CC(=O)C(=O)C=C1N(CC)CC`, the IC50 [1] was 500 µM, the IC50 [2] was 400 µM and the IC90 [3] was greater than 500 µM. It also gave an IC90 [4] greater than 500 µM.
Work on `COC1=CC(=O)C(=O)C=C1OC` yielded an IC50 [1] of 500 µM, an IC50 [2] greater than 500 µM and an IC90 [3] greater than 500 µM. The IC90 [4] was greater than 500 µM.
`O=C1C=C(N2CCC2)C(N2CCC2)=CC1=O` was tested, and the IC50 [1] was 500 µM, the IC50 [2] was 400 µM and the IC90 [3] was greater than 500 µM. For the same compound, the IC90 [4] was greater than 500 µM.
`O=C1C=C(N2CC2)C(N2CC2)=CC1=O` was tested, and the IC50 [1] was 0.4 µM, the ILS at 0.5 mg/kg [5] was 70% and the ILS at 2 mg/kg [6] was 59%. The Survival days [7] was 12.6, the ILS [8] was “Toxic” and the ILS at 1.5 mg/kg [9] was 86%. For the same compound, the IC50 [2] was 0.2 µM, the Survival days [10] was 13.4 and the IC90 [3] was 1.1 µM. It also gave an ILS at 1 mg/kg [11] of 81%, a Survival days [12] of 11.8 and a Survival days [13] of 13.8. For the same compound, the ILS at 1.25 mg/kg [14] was 84%, the Survival days [15] was 13.6 and the IC90 [4] was 1 µM. It also gave a Survival days [16] of 6.
`COC1=CC(=O)C(O)=C/C1=N\CCCl` was tested, and the IC50 [1] was 125 µM, the IC50 [2] was 110 µM and the IC90 [3] was 455 µM. The IC90 [4] was 190 µM.
